Assay results as given in US12692251B2, “Pralsetinib pharmaceutical compositions” (Rigel Pharmaceuticals, Inc., priority 2020, dated 2026).

What was measured:
[1] = Solid form stability to humidity and drying; type: physicochemical; conditions: for stability to drying: 50° C. (under vacuum) where stated
Procedure: In one aspect, the present disclosure provides a process for preparing crystalline Form A, Form B or Form C. In a particular aspect, Form A can be obtained by slurrying in alcohols, acetone, and acetonitrile or Form A was prepared by evaporative crystallization in multiple solvents and cooling crystallization in isopropanol and 1-propanol. Form A can also be produced by recrystallization in acetone:water. Form C can be obtained by recrystallizing Compound (I) in various water containing solvent systems (acetone:water, methanol:water, isopropanol:water, dimethylacetamide:water, tetrahydrofuran:water). Form C was stable drying at 50° C. under vacuum, and converted to Form B (anhydrous) upon heating to 150° C. […] Form C was not as hygroscopic as Form A during the dynamic vapor sorption measurements, gaining only 1.44% water.

[2] = Solubility of pralsetinib and its solid forms; type: physicochemical; conditions: for solubility in simulated gastric fluid: simulated gastric fluid (possibly due to conversion to HCl salt)
[3] = Accelerated stability for 4 weeks at 40° C./75% RH; type: physicochemical; conditions: Compositions 1-3
Procedure: The manufacturing process for the Compositions 1-3 are as follows: • 1) Intragranular components were blended in a suitably sized contained using the Turbula blender for 3 minutes at 23 rpm • 2) Intragranular blend was dry granulated by densification using a Riva minipress fitted with 22×9 mm caplet tooling • 3) Resultant material was milled using a Comil 193 fitted with 991 μm screen 4) Granule bulk density was determined and if not within 0.55-0.6 g/mL, densification and milling repeated until the desired bulk density was achieved • 5) Extragranular components were blend with the granules in a Turbula blender for 2 minutes at 23 rpm • 6) Final blend was hand filled in to Size 0 HPMC Capsules (Vcaps® Plus) • 7) Capsules were packed into 60 mL HDPE bottles with 4 g desiccant cap at a count of 30 capsules per bottle • 8) Packed product was placed on accelerated stability for 4 weeks at 40° C./75% RH

[4] = tested on: NSCLC and thyroid cancer xenografts driven by various RET mutations and fusions; conditions: in vivo; cited from earlier work
[5] = tested on: VEGFR2; conditions: in vivo; cited from earlier work
[6] = Dynamic Vapor Sorption (DVS); type: physicochemical; conditions: for total mass change by DVS: between 2% and 95% relative humidity
Procedure: Dynamic Vapor Sorption (DVS) was done using a DVS Intrinsic 1. The sample is loaded into a sample pan and suspended from a microbalance. A typical sample mass for DVS measurement is 25 mg. Nitrogen gas bubbled through distilled water provides the desired relative humidity. A typical measurement comprises the steps: • 1—Equilibrate at 50% RH • 2—50% to 2%. (50%, 40%, 30%, 20%, 10% and 2%) • a. Hold minimum of 5 mins and maximum of 60 minutes at each humidity. The pass criteria is less than 0.002% change • 3 —2% to 95% (2%, 10%, 20%, 30%, 40%, 50%, 60%, 70%, 80%, 90%, 95%) • a. Hold minimum of 5 mins and maximum of 60 minutes at each humidity. The pass criteria is less than 0.002% change • 4—95% to 2% (95%, 80%, 70%, 60%, 50%, 40%, 30%, 20%, 10%, 2%) • a. Hold minimum of 5 mins and maximum of 60 minutes at each humidity. The pass criteria is less than 0.002% change • 5—2% to 50% (2%, 10%, 20%, 30%, 40%, 50%) • a. Hold minimum of 5 mins and maximum of 60 minutes at each humidity. The pass criteria is less than 0.002% change

[7] = Competitive slurry experiments; type: physicochemical

COC1(C(=O)NC(C)c2ccc(-n3cc(F)cn3)nc2)CCC(c2nc(C)cc(Nc3cc(C)[nH]n3)n2)CC1.Cl (centres unmarked) [Form III]
behaviour at elevated humidity / humidification [1]: stable to humidification

CO[C@]1(C(=O)N[C@@H](C)c2ccc(-n3cc(F)cn3)nc2)CC[C@H](c2nc(C)cc(Nc3cc(C)[nH]n3)n2)CC1 [pralsetinib, (cis)-N—((S)-1-(6-(4-fluoro-1H-pyrazol-1-yl)pyridin-3-yl)ethyl)-1-methoxy-4-(4 methyl-6-(5-methyl-1H-pyrazol-3-ylamino)pyrimidin-2-yl)cyclohexanecarboxamide]
aqueous solubility [2]: low aqueous solubility
solubility in acidic pH ([2]; acidic pH (pH 1.2 medium)): relatively high solubility
physical form by XRPD after storage [3]: remains as an amorphous solid dispersion
growth of xenografts [4]: potently inhibits growth
inhibition of VEGFR2 [5]: without inhibiting

CO[C@]1(C(=O)N[C@@H](C)c2ccc(-n3cc(F)cn3)nc2)CC[C@H](c2nc(C)cc(Nc3cc(C)[nH]n3)n2)CC1 [Form C, (cis)-N—((S)-1-(6-(4-fluoro-1H-pyrazol-1-yl)pyridin-3-yl)ethyl)-1-methoxy-4-(4 methyl-6-(5-methyl-1H-pyrazol-3-ylamino)pyrimidin-2-yl)cyclohexanecarboxamide]
solubility in simulated gastric fluid [2]: high solubility
solubility in simulated intestinal fluid [2]: lower solubility than Form A
solubility in water [2]: lower solubility than Form A
water gained during dynamic vapor sorption measurements [6]: 1.44%
total mass change by DVS [6]: 1.4 wt. %
stability by X-ray powder diffraction during humidity testing ([1]; 75% relative humidity and 40° C. for one week, and cycling down to 2% relative humidity by DVS): remained stable
form conversion in competitive slurry, acetone and isopropanol ([7]; acetone and isopropanol): converted to Form A

CO[C@]1(C(=O)N[C@@H](C)c2ccc(-n3cc(F)cn3)nc2)CC[C@H](c2nc(C)cc(Nc3cc(C)[nH]n3)n2)CC1 [Form A, (cis)-N—((S)-1-(6-(4-fluoro-1H-pyrazol-1-yl)pyridin-3-yl)ethyl)-1-methoxy-4-(4 methyl-6-(5-methyl-1H-pyrazol-3-ylamino)pyrimidin-2-yl)cyclohexanecarboxamide]
solubility in simulated gastric fluid [2]: high solubility
solubility in simulated intestinal fluid [2]: low solubility
solubility in water [2]: low solubility
reversible mass change by DVS ([6]; between 2-95% relative humidity): about 10%
conversion on prolonged humidity exposure ([1]; prolonged humidity exposure): did not convert to Form C
form conversion in competitive slurry, methanol:water ([7]; methanol:water at high ratios of water to methanol and lower temperatures): converted to Form C

CO[C@]1(C(=O)N[C@@H](C)c2ccc(-n3cc(F)cn3)nc2)CC[C@H](c2nc(C)cc(Nc3cc(C)[nH]n3)n2)CC1 [Form B, (cis)-N—((S)-1-(6-(4-fluoro-1H-pyrazol-1-yl)pyridin-3-yl)ethyl)-1-methoxy-4-(4 methyl-6-(5-methyl-1H-pyrazol-3-ylamino)pyrimidin-2-yl)cyclohexanecarboxamide]
total mass change by DVS [6]: 1.4 wt. %

CO[C@]1(C(=O)N[C@@H](C)c2ccc(-n3cc(F)cn3)nc2)CC[C@H](c2nc(C)cc(Nc3cc(C)[nH]n3)n2)CC1.Cl [Form II]
stability to drying [1]: converted to Form III

COC1(C(=O)NC(C)c2ccc(-n3cc(F)cn3)nc2)CCC(c2nc(C)cc(Nc3cc(C)[nH]n3)n2)CC1.Cl (centres unmarked) [Form I]
stability to drying [1]: stable to drying
behaviour at elevated humidity / humidification [1]: deliquesced
